≈ marks a conversion by molar mass, not a printed value.
Assays:
Assay in all cases: in vitro antibacterial evaluation, MIC by broth dilution
Assay type in all cases: cell-based
[1] = tested on: Escherichia coli; details: 18 hours at 35° C.
How it was run: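 MIC is the lowest antibiotic concentration (tested 64-0.06 μg/mL) preventing growth of a 5×10^5 CFU/mL inoculum. Determined by broth dilution in Mueller-Hinton II medium following NCCLS standard M7-A2.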

[2] = tested on: Staphylococcus sp.; details: broth dilution, 18 hours at 35° C.; for MIC Staphylococcus aureus (ATCC 29213): strain ATCC 29213; for MIC Staphylococcus aureus (GC 1131): strain GC 1131; for MIC Staphylococcus aureus (GC 3051): strain GC 3051; for MIC Staphylococcus aureus (GC 3053): strain GC 3053; for MIC Staphylococcus aureus (GC 4541): strain GC 4541; for MIC Staphylococcus aureus (GC 4542): strain GC 4542; for MIC Staphylococcus aureus-SMITH (GC 4543): strain GC 4543; for MIC Staphylococcus aureus (GC 4544): strain GC 4544; for MIC Staphylococcus aureus (GC 4545): strain GC 4545; for MIC Staphylococcus haemolyticus (GC 4546): strain GC 4546; for MIC Coagulase Negative Staphylococcus (GC 4547): strain GC 4547; for MIC Coagulase Negative Staphylococcus (GC 4548): strain GC 4548; for MIC Coagulase Negative Staphylococcus (GC 4549): strain GC 4549; for MIC Coagulase Negative Staphylococcus (GC 4551): strain GC 4551
How it was run: (§1)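 Test organisms, which included recent clinical isolates resistant to methicillin, penicillin and/or vancomycin, were inoculated at 5×10^5 CFU/mL into Muller-Hinton II […] containing antibiotic at 64-0.06 μg/mL. Minimum inhibitory concentrations were then read as the lowest level inhibiting growth.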

[3] = tested on: Enterococcus sp.; details: broth dilution, 18 hours at 35° C.
How it was run: as §1

[4] = tested on: Streptococcus sp.; details: broth dilution, 18 hours at 35° C.
How it was run: as §1

SMILES: CC(c1ccccc1)C1NC(=O)CNC(=O)C(CO)NC(=O)C(C(O)C2CNC(=N)N2C2OC(CO)C(O)C(O)C2O)NC(=O)C(C(O)C2CNC(=N)N2)NC(=O)C(Cc2ccc(O)c(NC(=S)Nc3cc(C(F)(F)F)cc(C(F)(F)F)c3)c2)NC1=O (stereo not drawn) [Example 24, Cyclo[glycyl-β-methylphenylalanyl-3-[[[3,5-bis(trifluoromethyl)phenyl]carbamothioyl]amino]-tyrosyl-3-(2-iminoimidazolidin-4-yl)seryl-3-(3-hexopyranosyl-2-iminoimidazolidin-4-y)-serylseryl]]
- MIC Escherichia coli (ATCC 25922) ([1]; strain ATCC 25922, broth dilution): >64 µg/mL
- MIC Escherichia coli (GC 4559) ([1]; strain GC 4559, broth dilution): >64 µg/mL
- MIC Escherichia coli (GC 4560) ([1]; strain GC 4560, broth dilution): 32 µg/mL (≈ 25.5 µM)
- MIC Staphylococcus aureus (ATCC 29213) [2]: >64 µg/mL
- MIC Staphylococcus aureus (GC 1131) [2]: >64 µg/mL
- MIC Staphylococcus aureus (GC 3051) [2]: >64 µg/mL
- MIC Staphylococcus aureus (GC 3053) [2]: >64 µg/mL
- MIC Staphylococcus aureus (GC 4541) [2]: >64 µg/mL
- MIC Staphylococcus aureus (GC 4542) [2]: >64 µg/mL
- MIC Staphylococcus aureus-SMITH (GC 4543) [2]: >64 µg/mL
- MIC Staphylococcus aureus (GC 4544) [2]: >64 µg/mL
- MIC Staphylococcus aureus (GC 4545) [2]: >64 µg/mL
- MIC Staphylococcus haemolyticus (GC 4546) [2]: 64 µg/mL (≈ 50.9 µM)
- MIC Coagulase Negative Staphylococcus (GC 4547) [2]: 64 µg/mL (≈ 50.9 µM)
- MIC Coagulase Negative Staphylococcus (GC 4548) [2]: 64 µg/mL (≈ 50.9 µM)
- MIC Coagulase Negative Staphylococcus (GC 4549) [2]: >64 µg/mL
- MIC Coagulase Negative Staphylococcus (GC 4551) [2]: >64 µg/mL
- MIC Coagulase Negative Staphylococcus (GC 6257) ([2]; strain GC 6257): 32 µg/mL (≈ 25.5 µM)
- MIC Enterococcus faecalis (ATCC 29212) ([3]; strain ATCC 29212): 64 µg/mL (≈ 50.9 µM)
- MIC Enterococcus faecalis (GC 2242) ([3]; strain GC 2242): 64 µg/mL (≈ 50.9 µM)
- MIC Enterococcus faecium (GC 2243) ([3]; strain GC 2243): 64 µg/mL (≈ 50.9 µM)
- MIC Enterococcus faecalis (GC 2691) ([3]; strain GC 2691): >64 µg/mL
- MIC Enterococcus faecalis (GC 3059) ([3]; strain GC 3059): >64 µg/mL
- MIC Enterococcus faecalis (GC 4552) ([3]; strain GC 4552): >64 µg/mL
- MIC Enterococcus faecalis (GC 4553) ([3]; strain GC 4553): 32 µg/mL (≈ 25.5 µM)
- MIC Enterococcus faecalis (GC 4554) ([3]; strain GC 4554): >64 µg/mL
- MIC Enterococcus faecium (GC 4556) ([3]; strain GC 4556): 64 µg/mL (≈ 50.9 µM)
- MIC Enterococcus faecium (GC 4557) ([3]; strain GC 4557): 32 µg/mL (≈ 25.5 µM)
- MIC Enterococcus avium (GC 4558) ([3]; strain GC 4558): 64 µg/mL (≈ 50.9 µM)
- MIC Enterococcus faecalis (GC 6189) ([3]; strain GC 6189): >64 µg/mL
- MIC Streptococcus pneumoniae (ATCC 6301) ([4]; strain ATCC 6301): >64 µg/mL
- MIC Streptococcus pneumoniae (GC 1894) ([4]; strain GC 1894): 64 µg/mL (≈ 50.9 µM)
- MIC Streptococcus pyogenes (GC 4563) ([4]; strain GC 4563): 64 µg/mL (≈ 50.9 µM)
- MIC Streptococcus agalactiae (GC 4564) ([4]; strain GC 4564): >64 µg/mL
- MIC Streptococcus pneumoniae (GC 4565) ([4]; strain GC 4565): >64 µg/mL

SMILES: N=C1NCC(C(O)C2NC(=O)C(CC3CCC(OC4OC(CO)C(OC5OC6COC7(OC6C(O)C5O)C5CC6CC(C5)CC7C6)C(O)C4O)CC3)NC(=O)C(CC3CCCCC3)NC(=O)CNC(=O)C(CO)NC(=O)C(C(O)C3CNC(=N)N3C3OC(CO)C(O)C(O)C3O)NC2=O)N1 (single isomer, unassigned) [Example 223]
- MIC Escherichia coli (ATCC 25922) [1]: >64 µg/mL
- MIC Escherichia coli (GC 4559) [1]: >64 µg/mL
- MIC Escherichia coli (GC 4560) [1]: 32 µg/mL (≈ 22.4 µM)
- MIC Staphylococcus aureus (ATCC 29213) [2]: >64 µg/mL
- MIC Staphylococcus aureus (GC 1131) [2]: >64 µg/mL
- MIC Staphylococcus aureus (GC 3051) [2]: 64 µg/mL (≈ 44.9 µM)
- MIC Staphylococcus aureus (GC 3053) [2]: >64 µg/mL
- MIC Staphylococcus aureus (GC 4541) [2]: 64 µg/mL (≈ 44.9 µM)
- MIC Staphylococcus aureus (GC 4542) [2]: 64 µg/mL (≈ 44.9 µM)
- MIC Staphylococcus aureus-SMITH (GC 4543) [2]: 64 µg/mL (≈ 44.9 µM)
- MIC Staphylococcus aureus (GC 4544) [2]: 64 µg/mL (≈ 44.9 µM)
- MIC Staphylococcus aureus (GC 4545) [2]: 64 µg/mL (≈ 44.9 µM)
- MIC Staphylococcus haemolyticus (GC 4546) [2]: 64 µg/mL (≈ 44.9 µM)
- MIC Coagulase Negative Staphylococcus (GC 4547) [2]: 64 µg/mL (≈ 44.9 µM)
- MIC Coagulase Negative Staphylococcus (GC 4548) [2]: 64 µg/mL (≈ 44.9 µM)
- MIC Coagulase Negative Staphylococcus (GC 4549) [2]: 64 µg/mL (≈ 44.9 µM)
- MIC Coagulase Negative Staphylococcus (GC 4551) [2]: 64 µg/mL (≈ 44.9 µM)
- MIC Enterococcus avium (GC 4558) [3]: 64 µg/mL (≈ 44.9 µM)
- MIC Enterococcus faecalis (ATCC 29212) [3]: >64 µg/mL
- MIC Enterococcus faecalis (GC 2242) [3]: >64 µg/mL
- MIC Enterococcus faecalis (GC 2691) [3]: >64 µg/mL
- MIC Enterococcus faecalis (GC 3059) [3]: >64 µg/mL
- MIC Enterococcus faecalis (GC 4552) [3]: >64 µg/mL
- MIC Enterococcus faecalis (GC 4553) [3]: 64 µg/mL (≈ 44.9 µM)
- MIC Enterococcus faecalis (GC 4554) [3]: >64 µg/mL
- MIC Enterococcus faecalis (GC 6189) [3]: >64 µg/mL
- MIC Enterococcus faecium (GC 2243) [3]: >64 µg/mL
- MIC Enterococcus faecium (GC 4556) [3]: >64 µg/mL
- MIC Enterococcus faecium (GC 4557) [3]: 64 µg/mL (≈ 44.9 µM)
- MIC Enterococcus faecalis (ATCC 29212) ([3]; inoculum 5×10^5 CFU/mL, strain ATCC 29212): >64 µg/mL
- MIC Enterococcus faecalis (GC 2242) ([3]; inoculum 5×10^5 CFU/mL, strain GC 2242): >64 µg/mL
- MIC Enterococcus faecium (GC 2243) ([3]; inoculum 5×10^5 CFU/mL, strain GC 2243): >64 µg/mL
- MIC Enterococcus faecalis (GC 2691) ([3]; inoculum 5×10^5 CFU/mL, strain GC 2691): >64 µg/mL
- MIC Enterococcus faecalis (GC 3059) ([3]; inoculum 5×10^5 CFU/mL, strain GC 3059): >64 µg/mL
- MIC Enterococcus faecalis (GC 4552) ([3]; inoculum 5×10^5 CFU/mL, strain GC 4552): >64 µg/mL
- MIC Enterococcus faecalis (GC 4553) ([3]; inoculum 5×10^5 CFU/mL, strain GC 4553): 64 µg/mL (≈ 44.9 µM)
- MIC Enterococcus faecalis (GC 4554) ([3]; inoculum 5×10^5 CFU/mL, strain GC 4554): >64 µg/mL
- MIC Enterococcus faecium (GC 4556) ([3]; inoculum 5×10^5 CFU/mL, strain GC 4556): >64 µg/mL
- MIC Enterococcus faecium (GC 4557) ([3]; inoculum 5×10^5 CFU/mL, strain GC 4557): 64 µg/mL (≈ 44.9 µM)
- MIC Enterococcus avium (GC 4558) ([3]; inoculum 5×10^5 CFU/mL, strain GC 4558): 64 µg/mL (≈ 44.9 µM)
- MIC Enterococcus faecalis (GC 6189) ([3]; inoculum 5×10^5 CFU/mL, strain GC 6189): >64 µg/mL
- MIC Streptococcus agalactiae (GC 4564) [4]: >64 µg/mL
- MIC Streptococcus pneumoniae (ATCC 6301) [4]: 64 µg/mL (≈ 44.9 µM)
- MIC Streptococcus pneumoniae (GC 1894) [4]: 32 µg/mL (≈ 22.4 µM)
- MIC Streptococcus pneumoniae (GC 4565) [4]: >64 µg/mL
- MIC Streptococcus pyogenes (GC 4563) [4]: 64 µg/mL (≈ 44.9 µM)
- MIC Streptococcus pneumoniae (ATCC 6301) ([4]; inoculum 5×10^5 CFU/mL, strain ATCC 6301): 64 µg/mL (≈ 44.9 µM)
- MIC Streptococcus pneumoniae (GC 1894) ([4]; inoculum 5×10^5 CFU/mL, strain GC 1894): 32 µg/mL (≈ 22.4 µM)
- MIC Streptococcus pyogenes (GC 4563) ([4]; inoculum 5×10^5 CFU/mL, strain GC 4563): 64 µg/mL (≈ 44.9 µM)
- MIC Streptococcus agalactiae (GC 4564) ([4]; inoculum 5×10^5 CFU/mL, strain GC 4564): >64 µg/mL
- MIC Streptococcus pneumoniae (GC 4565) ([4]; inoculum 5×10^5 CFU/mL, strain GC 4565): >64 µg/mL

Reference: patent US6914045B2, “Glycopeptide antibiotics” (Wyeth Holdings Corporation, priority 2001, dated 2005)
